Measured values: PubChem BioAssay (NCI)
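Here, GI50 denotes the concentration required for 50% inhibition of growth. TGI: total growth inhibition.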

What was measured:
Assay in all cases: growth of human tumour cells (NCI), 384-well format
[1] = test system: A498 renal
[2] = test system: A549 NSCLC
[3] = test system: ACHN renal
[4] = test system: BT-549 breast
[5] = test system: CAKI-1 renal
[6] = test system: COLO 205 colon
[7] = test system: DU-145 prostate
[8] = test system: EKVX NSCLC
[9] = test system: HCC-2998 colon
[10] = test system: HCT-116 colon
[11] = test system: HCT-15 colon
[12] = test system: HL-60(TB) leukemia
[13] = test system: HOP-62 NSCLC
[14] = test system: HOP-92 NSCLC
[15] = test system: HS 578T breast
[16] = test system: HT29 colon
[17] = test system: IGROV1 ovarian
[18] = test system: KM12 colon
[19] = test system: LOX IMVI melanoma
[20] = test system: M14 melanoma
[21] = test system: MALME-3M melanoma
[22] = test system: MCF7 breast
[23] = test system: MDA-MB-231 breast
[24] = test system: MDA-MB-435 melanoma
[25] = test system: MOLT-4 leukemia
[26] = test system: NCI-H226 lung
[27] = test system: NCI-H23 lung
[28] = test system: NCI-H322M lung
[29] = test system: NCI-H460 NSCLC
[30] = test system: NCI-H522 lung
[31] = test system: NCI/ADR-RES ovarian
[32] = test system: OVCAR-3 ovarian
[33] = test system: OVCAR-4 ovarian
[34] = test system: OVCAR-5 ovarian
[35] = test system: OVCAR-8 ovarian
[36] = test system: PC-3 prostate
[37] = test system: RPMI-8226 leukemia
[38] = test system: RXF 393 renal
[39] = test system: SF-268 CNS
[40] = test system: SF-295 CNS
[41] = test system: SF-539 CNS
[42] = test system: SK-MEL-28 melanoma
[43] = test system: SK-MEL-5 melanoma
[44] = test system: SK-OV-3 ovarian
[45] = test system: SN12C renal
[46] = test system: SNB-19 CNS
[47] = test system: SNB-75 CNS
[48] = test system: SR leukemia
[49] = test system: T-47D breast
[50] = test system: TK-10 renal
[51] = test system: U251 glioblastoma
[52] = test system: UACC-257 melanoma
[53] = test system: UACC-62 melanoma

## COc1ccc(-c2cc3nccn3c(Nc3ncccc3C(N)=O)n2)cc1OC
[1]
  GI50: 0.518 µM
  TGI: > 100 µM
[2]
  GI50: 17.9 µM
  TGI: > 100 µM
[3]
  GI50: 0.45 µM
  TGI: 3.75 µM
[4]
  GI50: 2.26 µM
  TGI: > 100 µM
[5]
  GI50: 0.392 µM
  TGI: > 100 µM
[6]
  GI50: 0.522 µM
  TGI: > 100 µM
[7]
  GI50: 0.914 µM
  TGI: 12.3 µM
[8]
  GI50: 17.9 µM
  TGI: > 100 µM
[9]
  GI50: 46.6 µM
  TGI: > 100 µM
[10]
  GI50: 0.454 µM
  TGI: 10.9 µM
[11]
  GI50: 0.677 µM
  TGI: > 100 µM
[12]
  GI50: 1.15 µM
  TGI: 3.05 µM
[13]
  GI50: 0.784 µM
  TGI: 71.4 µM
[14]
  GI50: > 100 µM
  TGI: > 100 µM
[15]
  GI50: 1.31 µM
  TGI: > 100 µM
[16]
  GI50: 6.96 µM
  TGI: > 100 µM
[17]
  GI50: 0.666 µM
  TGI: > 100 µM
[18]
  GI50: 1.73 µM
  TGI: > 100 µM
[19]
  GI50: 0.461 µM
  TGI: 4.31 µM
[20]
  GI50: > 100 µM
  TGI: > 100 µM
[21]
  GI50: > 100 µM
  TGI: > 100 µM
[22]
  GI50: 1.11 µM
  TGI: > 100 µM
[23]
  GI50: > 100 µM
  TGI: > 100 µM
[24]
  GI50: > 100 µM
  TGI: > 100 µM
[25]
  GI50: 1.48 µM
  TGI: 5.77 µM
[26]
  GI50: 6.52 µM
  TGI: > 100 µM
[27]
  GI50: 0.858 µM
  TGI: > 100 µM
[28]
  GI50: 2.06 µM
  TGI: > 100 µM
[29]
  GI50: 0.555 µM
  TGI: 12.4 µM
[30]
  GI50: 0.587 µM
  TGI: > 100 µM
[31]
  GI50: 1.87 µM
  TGI: > 100 µM
[32]
  GI50: 2.36 µM
  TGI: > 100 µM
[33]
  GI50: > 100 µM
  TGI: > 100 µM
[34]
  GI50: 4.46 µM
  TGI: > 100 µM
[35]
  GI50: 2.14 µM
  TGI: > 100 µM
[36]
  GI50: 2.17 µM
  TGI: > 100 µM
[37]
  GI50: 1.62 µM
  TGI: > 100 µM
[38]
  GI50: 2.36 µM
  TGI: 91 µM
[39]
  GI50: 2.02 µM
  TGI: > 100 µM
[40]
  GI50: > 100 µM
  TGI: > 100 µM
[41]
  GI50: 4.82 µM
  TGI: > 100 µM
[42]
  GI50: > 100 µM
  TGI: > 100 µM
[43]
  GI50: 0.567 µM
  TGI: > 100 µM
[44]
  GI50: 0.571 µM
  TGI: > 100 µM
[45]
  GI50: 0.819 µM
  TGI: > 100 µM
[46]
  GI50: 51.6 µM
  TGI: > 100 µM
[47]
  GI50: > 100 µM
  TGI: > 100 µM
[48]
  GI50: 0.129 µM
  TGI: 0.301 µM
[49]
  GI50: > 100 µM
  TGI: > 100 µM
[50]
  GI50: 0.692 µM
  TGI: > 100 µM
[51]
  GI50: 7.43 µM
  TGI: > 100 µM
[52]
  GI50: 91.7 µM
  TGI: > 100 µM
[53]
  GI50: 0.675 µM
  TGI: > 100 µM
